Key:
RBP = RBP (Homo sapiens, UniProt P02753); assay: Competition binding assay, RBP-retinol/HPR, fluorescence; conditions: physiological temperature (37 C)
Excerpt: Based upon these findings, we sought to further explore the mechanism(s) of retinol reduction during HPR treatment. A tenable hypothesis is that HPR may displace retinol by competing at the retinol binding site on RBP. […] Therefore, one can measure displacement of retinol from the RBP holoprotein by observing decreases in both protein (340 nm) and retinol (470 nm) fluorescence. We performed a competition binding assay using RBP-retinol/HPR concentrations which were similar to those determined from the 14 day trial at 20 mg/kg HPR described above. […] In the control assays, decreases in retinol fluorescence were associated with concomitant increases in protein fluorescence, see FIG. 3a. This effect was determined to be due to temperature effects as the dissociation constant of RBP-retinol increases (decreased affinity) with increased time at 37 C.

LRAT = molecular target: T1, LRAT (Bos taurus, UniProt Q9BGL2); assay: In vitro LRAT assay, retinyl ester synthesis by bovine RPE membranes/microsomes; format: biochemical
T1 construct: bovine RPE microsomes are used as an enzyme source; from tissue; host or cells: bovine retinal pigment epithelium (membranes / microsomes)
T1 sequence (Q9BGL2 1-230): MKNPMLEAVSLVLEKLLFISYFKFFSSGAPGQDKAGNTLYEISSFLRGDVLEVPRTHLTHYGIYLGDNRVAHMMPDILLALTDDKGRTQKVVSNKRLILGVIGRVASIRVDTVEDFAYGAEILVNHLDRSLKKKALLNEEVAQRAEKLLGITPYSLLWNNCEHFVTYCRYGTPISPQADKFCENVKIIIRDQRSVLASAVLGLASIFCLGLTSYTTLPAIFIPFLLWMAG
Description: We examined the effects on HPR on enzymes or proteins of the visual cycle using in vitro biochemical assays. Specifically, the utilization of exogenous all-trans retinol by membranes prepared from bovine RPE was studied. […] Steady-state levels of HPR in the RPE (determined from mice which have been given 20 mg/kg HPR, i.p., daily for 28 days) range from 5-10 μM. With this in mind, we examined the effects of 10 μM HPR on production of all-trans retinyl esters and 11-cis retinol in assays similar to those described above. […] In the presence of endogenous retinoids, utilization of exogenous all-trans retinol is extremely low and 11-cis retinol is produced solely from the endogenous all-trans retinyl esters. […] Thus, the retinoic acids appear to affect at least two targets in the visual cycle. We have determined that HPR-induced reduction of 11-cis retinol biosynthesis occurs via LRAT inhibition and reduction in all-trans retinyl ester levels. In this situation, the isomerase enzyme is starved for substrate and 11-cis retinol production declines.
A second target for HPR in the visual cycle was identified using in vitro biochemical assays. Lecithin retinol acyl transferase (LRAT) catalyzes the conversion of retinol into retinyl esters. LRAT is critical not only for retinol-retinyl ester homeostasis but also for generation of substrate for visual chromophore biosynthesis. The data shown in panel A of FIG. 16 illustrate the inhibitory effect of HPR on the rate of retinyl ester synthesis. In this assay, bovine RPE microsomes are used as an enzyme source and all-trans retinol (atROL) is the substrate. […] A secondary transformation (Eadie-Hofstee) of the kinetic data in panel A reveal that the mode of inhibition is competitive (see FIG. 16, panel B). Therefore, HPR competes with atROL for binding sites on LRAT. The apparent inhibition constant (Ki) was determined to be ˜6 μM. This means that at 6 μM HPR, the rate of retinyl ester synthesis would be decreased by 50%. In a separate study, we have determined that HPR concentrations in the RPE approach 10 μM with a 10 mg/kg dose of HPR.

CRALBP = molecular target: T2, CRALBP (Homo sapiens, UniProt P12271); assay: Fluorescence quenching study of binding to CRALBP
T2 construct: made in house
T2 sequence (P12271 whole entry, species assumed): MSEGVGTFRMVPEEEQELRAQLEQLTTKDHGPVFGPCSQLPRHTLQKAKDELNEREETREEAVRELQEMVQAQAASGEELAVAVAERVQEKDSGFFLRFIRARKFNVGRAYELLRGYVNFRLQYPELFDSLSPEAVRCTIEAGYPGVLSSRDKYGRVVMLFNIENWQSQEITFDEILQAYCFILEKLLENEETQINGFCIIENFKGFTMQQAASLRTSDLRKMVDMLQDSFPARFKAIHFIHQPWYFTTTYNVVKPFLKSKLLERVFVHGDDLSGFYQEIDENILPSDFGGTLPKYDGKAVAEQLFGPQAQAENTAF
Description: Apo-CRALBP at 0.5 μM was incubated with 1 μM of 11-cis Retinal (11cRAL), all-trans retinal (atRAL) or N-4-hydroxyphenyl retinamide (HPR) in PBS at room temperature for 1 hour. As a control, same volume of DMSO was added to the Apo-CRABLP solution. The emission spectra were measured between 290 nm to 500 nm with excitation wavelength at 280 nm and 2 nm bandpass (See FIG. 7).
Quenching of CRALBP protein fluorescence with 11-cis retinal (11cRAL). The fluorescence emission of recombinant apo-CRALBP (0.5 μM) was measured using 280 nm excitation (“no 11cRAL”).
Quenching of CRALBP protein fluorescence with HPR. The data shown were obtained using an experimental design identical to that described above. The fluorescence emission of recombinant apo-CRALBP was measured using 280 nm excitation (“no HPR”).
We performed an analysis of the dissociation constant (KD) for 11cRAL and HPR binding to apo-CRALBP (see FIG. 15). […] This calculation is based upon the ligand concentration necessary to fully quench the protein fluorescence. The data reveal that both 11cRAL and HPR quench apo-CRALBP fluorescence maximally at ˜1.5 μM. Thus, although apo-CRALBP is described as an 11 cis-specific retinoid binding protein, it appears to bind HPR as well.

abca4 null mutant mice = assay: A2PE-H2 and A2E as a function of HPR dose, 28 days; format: in vivo, mouse; conditions: HPR daily for 28 days, several doses
Description: Group averages from the data shown in panels A-G of FIG. 18 in Example 25 (28 day time points) are plotted to illustrate the strong correlation between increases in serum HPR and decreases in serum retinol (see FIG. 12). Reductions in serum retinol are highly correlated with reductions in A2E and precursor compounds (A2PE-H2). A pronounced reduction in A2PE-H2 in the 2.5 mg/kg dosage group (˜47%) is observed when the serum retinol reduction is only 20%. The reason for this disproportionate reduction is related to the inherently lower ocular retinoid content in this group of 2-month old animals compared to the other groups. It is likely that if these animals had been maintained on the 2.5 mg/kg dose for a more prolonged period, a greater reduction in A2E would also be realized.
ABCA4 null mutant mice were given the indicated dose of HPR in DMSO or DMSO alone daily for 28 days (n=16 mice per treatment group). At study onset, mice in the 2.5 mg/kg group were 2 months of age, mice in the other treatment groups were 3 months of age. At the indicated times, representative mice were taken from each group (n=4) for analysis of A2E precursor compounds (see FIG. 18, A2PE-H2, panels A, C and E) and A2E (see FIG. 18, panels B, D and F). […] Sample extracts were analyzed by LC. […]

[1] = test system: patients with a variety of cancers; conditions: human patients; cited from earlier work

CC1=C(/C=C/C(C)=C/C=C/C(C)=C/C(=O)Nc2ccc(O)cc2)C(C)(C)CCC1 [HPR, N-(4-hydroxyphenyl)retinamide]
displacement of retinol from RBP-retinol holoprotein (RBP): efficiently displaces retinol
mode of inhibition of LRAT (LRAT; Eadie-Hofstee transformation): competitive
net retinyl ester synthesis (LRAT; bovine RPE microsomes, atROL substrate): decreases net retinyl ester synthesis in a concentration-dependent manner
Ki (LRAT; bovine RPE microsomes, atROL substrate, read-out: apparent inhibition constant (Ki), LRAT): ~6 µM
IC50 (LRAT; membranes from bovine RPE, exogenous all-trans retinol, read-out: half-maximal inhibition of LRAT): ~20 µM
concentration of maximal quenching of apo-CRALBP fluorescence (CRALBP): ~1.5 µM
quenching of CRALBP fluorescence emission (CRALBP; 0.5 μM apo-CRALBP, 1 μM ligand, 1 hour, vs DMSO): lowest
concentration dependence of CRALBP protein fluorescence quenching (CRALBP; 0.5 μM recombinant apo-CRALBP, 280 nm excitation): concentration dependent manner
Kd (CRALBP; transformation of fluorescence quenching data, read-out: dissociation constant (KD) for binding to apo-CRALBP): ~0.03 µM
A2PE-H2 and A2E during the study period (abca4 null mutant mice): dose-dependent reductions
plasma concentration after high fat meals versus carbohydrate meals [1]: three times greater
